Experiments:
[1] = cited from earlier work
From the text: The Arc display several populations of neurons that are pivotal for regulating energy homoeostasis, food intake and cardiovascular functions. Because of this central role at the interface between the brain and the periphery, a few studies have hypothesized that the Arc could share common features with classical CVOs. […] We have therefore reinvestigated this subject using our approach. […] Membrane‐associated SST2 in Arc neurons intern ...

[2] = target: T1, SST2 (Rattus norvegicus, UniProt P30680); conditions: P14 rats, 2.5 mg/kg i.p., 45 mins
Procedure: Adult mice and post‐natal day 14 (P14) male rats. […] Brains were dissected, post‐fixed in the same fixative overnight at 4°C, cryoprotected, frozen in liquid isopentane at −45°C and sectioned in the coronal plane at a thickness of 30 μm and collected in PBS.
The SST2 receptor was immunolocalized on brain sections (in vivo models 1‐5), whole embryo sections (in vivo model 5) and DAOY cells (in vitro model). Brain sections were selected at the level of the circumventricular organs (in vivo model 1), at the level of the focused ultrasound‐mediated BBB opening (in vivo model 2), at the level of the ischaemia‐reperfusion lesions (in vivo model 3), at the level of the traumatic brain injury (in vivo model 4) and at the level of the caudal embryonic cortex (in vivo model 5). See Supporting Information for further details.

[3] = Tolerability after acute OCT i.p. injection; format: in vivo; conditions: rat and mice models, 2.5 mg/kg i.p.
[4] = target: T1, SST2; assay: In vivo model 3: juvenile cerebral ischaemia, OCT extravasation detected by SST2 internalization; set-up: two sensory CVOs in which neurons natively express the SST2; from tissue; host or cells: brain of P14 rats (area postrema, OVLT, arcuate nucleus, cerebral cortex), in vivo; conditions: P14 rats, 2.5 mg/kg i.p., 45 mins
Procedure: Ischaemia‐reperfusion. Ischaemia was induced in P14 rats as previously reported. See Supporting Information for further details.
Cerebral ischaemia. Isoflurane-anaesthetized P14 rats were exposed to proximal left middle cerebral artery electrocoagulation (MCAo) combined with a transient (60 min) double occlusion of common carotid arteries (CCAo). Carotid blood-flow restoration was assessed by release of the carotid clips.

[5] = system: Human Primary Brain Microvascular Endothelial Cell (hPBMEC) monolayers; assay: Fluorescein permeability of hPBMEC monolayers (tight junction functionality); format: in vitro ADME; conditions: hPBMEC monolayer, with 1 M mannitol treatment 30 min, versus basal
Procedure: The hPBMECs were cultured as previously described [31]. […] Differentiated hPBMECs with the BBB phenotype (TEER> 1000 Ωxcm^2) were treated or not with 1 M mannitol in serum‐free culture medium for 30 min to temporarily open tight junctions. Then, mannitol solution was removed and replaced by culture medium. Tight junction opening was evaluated with the measurements of fluorescein permeability, a small hydrophilic compound known to cross the BBB via the paracellular route. […] The medium of the abluminal compartment was then collected during a 2‐hour period (n = 3 per condition).
The experimentation was conducted in compliance with the French legislation, and the protocol was permitted by the French Ministry of Higher Education and Research (CODECOH DC-2014-2229). Brain capillaries were isolated using soft digestion of patient brain tissues and then seeded. Brain primary microvascular endothelial cells were shortly amplified and seeded on 12-well-type Transwell® (Corning, membrane area: 1.12 cm^2) with microporous membranes (pore size: 0.4 µm). Cells were cultured in EBM-2 medium (Lonza, Basel, Switzerland) supplemented with 20% serum and growth factors (Sigma-Aldrich, St. Louis, MO, USA). Transendothelial electrical resistance (TEER) was measured as an integrity marker and to assess cellular barrier tightness.

[6] = target: T2, SST2 (Mus musculus, UniProt P30875); assay: In vivo model 2: focused ultrasound-mediated BBB disruption, extravasation detected by SST2 internalization or MRI; conditions: after microbubble sonication of the targeted area, i.v.
T2 construct: The endogenous SST2 was immunolocalized using an extensively characterized rabbit monoclonal antibody; from tissue; host or cells: brain of adult C57Bl/6 mice, P7 OF1 mouse pups and C57Bl/6 embryos (E13.5-E18.5), in vivo
Procedure: BBB disruption induced by magnetic resonance imaging (MRI)‐guided focused ultrasound (FUS) (MRgFUS) was performed as previously reported [28].
Stereological measures of estimated volume in the in vivo model 2 was performed with the Volumest plug‐in [32] in the Fiji distribution of ImageJ [33]. Brightfield images of serial coronal sections separated by 180 μm were collected. The number of serial sections, the thickness of the sections, the sampling interval and pixel‐to‐μm scaling were entered into the Volumest plug‐in. Next, the cortical areas displaying BBB disruption detected by SST2 internalization were manually traced and the volume estimate was calculated in the Volumest plug‐in [32].
Adult C57Bl/6 mice (n=3) were anaesthetized with isoflurane (1-2% at beginning, then 0.8% during MRI acquisition). The catheter was installed in the tail vein and the head was shaved with a depilatory cream. Mice were then installed on the MRgFUS system (Image Guided Therapy) and the transducer was placed on their head. MR contrast agent (MRCA) (Dotarem, Guerbet, France; 0.1 mL) was injected intravenously outside the MRI tunnel, before the baseline MRI acquisition. Mice were then removed from the MRI tunnel in order to inject the ultrasound contrast agent (UCA) (Sonovue, Bracco, Italy; 0.15 mL). […]

[7] = cited from earlier work; remark: listed apart in the source

T1 sequence (P30680 whole entry): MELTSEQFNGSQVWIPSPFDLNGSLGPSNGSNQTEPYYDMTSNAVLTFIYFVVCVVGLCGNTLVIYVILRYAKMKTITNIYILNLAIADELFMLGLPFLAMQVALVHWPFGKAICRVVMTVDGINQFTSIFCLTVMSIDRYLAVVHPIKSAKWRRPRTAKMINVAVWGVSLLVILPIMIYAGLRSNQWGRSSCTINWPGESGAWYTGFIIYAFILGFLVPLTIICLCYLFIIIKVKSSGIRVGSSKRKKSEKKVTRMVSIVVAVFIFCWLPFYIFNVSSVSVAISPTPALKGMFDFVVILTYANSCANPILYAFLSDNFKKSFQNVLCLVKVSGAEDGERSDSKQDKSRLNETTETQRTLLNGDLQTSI
T2 sequence (P30875 whole entry): as the sequence (P30680 whole entry) above, with L3M, T4S, F8L, I15V, P16S, G168C, A335T counted along it

For `Cc1cc(-c2ccc(/N=N/c3ccc4c(S(=O)(=O)O)cc(S(=O)(=O)O)c(N)c4c3O)c(C)c2)ccc1/N=N/c1ccc2c(S(=O)(=O)O)cc(S(=O)(=O)O)c(N)c2c1O` [Evans blue], which “dye extravasation in the Arc” value [1] is on record?
The value was “extravasated only in the Arc of 24‐hour fasted mice but not in control‐fed mice”.

Which “SST2 immunoreactivity in AP and OVLT (permeable capillaries)” value [2] does the source give for `C[C@@H](O)[C@@H]1NC(=O)[C@H](CCCCN)NC(=O)[C@@H](Cc2c[nH]c3ccccc23)NC(=O)[C@H](Cc2ccccc2)NC(=O)[C@@H](NC(=O)[C@H](N)Cc2ccccc2)CSSC[C@@H](C(=O)N[C@H](CO)[C@@H](C)O)NC1=O` [OCT, octreotide] here?
The value was “immunoreactivity was confined to intracytoplasmic granules near the nucleus and in proximal dendrites”.

And the “SST2 in arcuate nucleus neurons” value ([2]; naïve animals)?
The value was “internalized and clustered in TGN‐like structures”.

What about the “physiological or behavioural parameters after acute i.p. injection until perfusion” value [3] of the same molecule?
Its value is “did not observe any gross changes in physiological or behavioural parameters”.

And the “SST2 internalization around cortical lesion” value ([4]; 6 h after ischaemia)?
Its value is “few neurons with internalized receptors were visible”.

And the “SST2 internalization around cortical lesion” value ([4]; 12 h after ischaemia)?
Its value is “a larger number of neurons with internalized SST2 are localized in a narrow band”.

What about the “SST2 internalization around cortical lesion” value ([4]; 24 h after ischaemia) of the same molecule?
The value was “induced large areas of SST2 internalization around the core of the cortical lesion”.

For `O=C1OC2(c3ccc(O)cc3Oc3cc(O)ccc32)c2ccccc21` [fluorescein], which “increase of fluorescein permeability” value [5] is on record?
The value was 600 ± 25%.

With `CNC[C@H](O)[C@@H](O)[C@H](O)[C@H](O)CO.O=C([O-])CN1CCN(CC(=O)[O-])CCN(CC(=O)O)CCN(CC(=O)[O-])CC1.[Gd+3]` [gadolinium] as the molecule, how does the “Gd extravasation on T1-weighted MRI” value [6] read?
Its value is “Extravasation was evident from the cerebral cortex to deep brain structures”.

With somatostatin as the molecule, how does the “half-life in the circulation” value [7] read?
Its value is 2 to 3 min.

Reference: article PMC7891648, “A simple novel approach for detecting blood–brain barrier permeability using GPCR internalization” (Neuropathology and Applied Neurobiology, 2020)
